Earlier results on six molecules are cited in article PMC3853718 (Journal of Translational Medicine, 2013).

Like-named read-outs stand apart in the source and are kept apart here. Some results are limits rather than exact numbers.

One data set relates to solid tumor patients. Conditions: cited from earlier work.
The next data set deals with patients. The note with it: cited from earlier work; for toxicity: 1-hour infusion on days 1, 8, 15 in a 4-week cycle.
The subject of another data set is mouse xenograft model. Conditions: cited from earlier work.
Another data set deals with nude mice. Conditions: once-daily administration for 7 days in nude mice; cited from earlier work.
In a further data set the test system is healthy volunteers. On the set-up: method as in PMID 17115157. Conditions: single dose of 160 mg; cited from earlier work.

Regarding `CC[C@H](CO)Nc1nc(NCc2ccccc2)c2ncn(C(C)C)c2n1` [seliciclib], the objective responses result is given as “one PR” in the data set on solid tumor patients (patient with hepatocellular carcinoma among 56 patients) and “No responses” with solid tumor patients (separate trial). In the data set with patients (orally twice daily for 7 days of a 21-day schedule), the Dose-limiting toxicities result was “hypokalemia, hyponatremia, elevated gamma-glutamyl transferase, hyperglycemia, and vasculitic rash”.

Turning to `CN1CC[C@H](c2c(O)cc(O)c3c(=O)cc(-c4ccccc4Cl)oc23)[C@H](O)C1` [flavopiridol], the objective responses result is “No objective responses” with solid tumor patients (55 patients, 1-hour daily infusion for 5 days, 3 days, or 1 day in a 21-day cycle); “one PR” with solid tumor patients (72-hour continuous infusion every 2 weeks, study of 76 patients, patient with renal cancer); “one CR” in the data set on solid tumor patients (72-hour continuous infusion every 2 weeks, trial of 38 patients, patient with gastric cancer). The dose-limiting toxicity entry in the data set with patients (72-hour continuous infusion trials) is on record as “dose-limiting diarrhea”; in the data set with patients (daily 1-hour infusion schedule) it was “dose-limiting neutropenia”. Further, the “minimum effective dose, defined as >50% tumor growth inhibition” value in the data set on mouse xenograft model is given as 10 mg/kg. The “maximum tolerated dose, defined as the dose associated with 20% weight loss” value in the data set on nude mice is < 10 mg/kg.

On to `CC(C)CC(=O)Nc1[nH]nc2c1CN(C(=O)C1CCN(C)CC1)C2(C)C` [PHA793887], for which, in the data set on solid tumor patients (first-in-human study in solid tumor patients), the objective responses result is “did not show any objective responses”. The toxicity result in the data set with patients (dose level of 66 mg/m^2, one patient) is given as “grade 4 hepatic failure”; in the data set on patients (third dose level of 44 mg/m^2, one patient), “fatal hepatorenal failure”.

Regarding `Cc1ncc(-c2ccnc(Nc3ccc(S(C)(=O)=O)cc3)n2)n1C(C)C` [AZD5438], the DLT result in the data set with healthy volunteers is “nausea and vomiting”. In the data set on solid tumor patients (3 phase 1 trials), the objective responses result is “No responses”. Besides, the tolerability entry in the data set with patients (40 mg four times a day, continuous daily dosing schedules, advanced solid tumors) is “not tolerated”.

With `CC(=O)c1c(C)c2cnc(Nc3ccc(N4CCNCC4)cn3)nc2n(C2CCCC2)c1=O` [PD0332991], in the data set on solid tumor patients (patient with testicular cancer among 33 patients), the objective responses result is “one PR”. Further, the DLTs entry in the data set on patients is “neutropenia”.

As to `O=C(NC1CCNCC1)c1[nH]ncc1NC(=O)c1c(Cl)cccc1Cl` [AT7519], the objective responses result in the data set with solid tumor patients (patient with metastatic NSCLC) is “one PR”.
